Results published in US8637043B2, “Compositions useful as ligands for the formyl peptide receptor like 1 receptor and methods of use thereof” (Chemocentryx, Inc., priority 2001, dated 2014).
“And” between values parts separate entries of the source, which are not always exact repeats. Equal values may be shown once. Values belong to the substance of their own block, whether it stands above or below them. Ends that are not written are not given here.

Columns and labels:
[1] = test system: OVA-specific IgG; assay: Adjuvant activity, anti-OVA antibodies in mice (Example 17); format: in vivo, BALB/c mice; details: 10 μg OVA
Experimental: First, 96-well U-bottom plastic dishes were coated overnight with 1 μg ovalbumin (OVA) in 100 μl PBS per well. The next day, the dishes were rinsed with PBS, blocked with PBS containing 5% fetal bovine serum (FBS), and rinsed with PBS again. Plasma samples from experimental animals (see below) were diluted 10^2- to 10^5-fold and added to the dishes for 2 hours, after which the dishes were again rinsed with PBS. The dishes were then incubated with biotinylated goat anti-monkey IgG detection antibodies, then rinsed with PBS and incubated with streptavidin-linked horseradish peroxidase (SA-HRP). After a final rinsing with PBS, the HRP substrate 2,2′-Azinobis [3-ethylbenzothiazoline-6-sulfonic acid]-diammonium salt was added. Color development was measured with an ELISA plate reader at 405 nm, and optical density (OD) units were converted to arbitrary “antibody units,” where a unit is defined as the inverse of the plasma dilution that produces 50% of the maximum response from a standard curve obtained by serial dilution of an ascites collected from OVA-injected mice and containing OVA-specific antibodies.
The experiment described in Example 16 was repeated, except the formulations were administered to BALB/c mice with 10 μg (Table 20) or 500 μg (Table 21) of OVA with in 100 μl. IFA was not used.
BALB/c mice were given OVA with or without SHAAYtide (SEQ ID NO:6) either intraperitoneally on days 0 and 21 (Table 20), or sub-cutaneously on days 0 and 14 (Table 21). Blood samples were collected at the indicated time points. The results, reported in antibody units, are given in Tables 20 and 21, showing IgG levels.

[2] = test system: dendritic cells; assay: Dendritic cell infiltration after intradermal injection in mice (anti-DEC-205 staining); format: in vivo; design: key to Dendritic cell infiltration Score / Infiltration Score: 0 = none, 1 = slight, 2 = mild, 3 = moderate, 4 = severe; details: for Infiltration Score: BALB/c mice, various doses
Excerpt: The following chemokines were obtained from R&D Systems (Minneapolis, Minn.): vMCK-2, mC10, and GM-CSF. The following peptides were synthesized at Phoenix Pharmaceuticals (San Carlos, Calif.): SHAAYtide (SEQ ID NO:6), several […] MODIFIED peptides of SHAAGtide variant (SEQ ID NO:) (i.e. cyclized using the MPR-Cys linked cyclization), control peptide (SEQ ID NO:33, […]Gin Pro Gly lie Lys Arg Arg Trp Leu Met), randomly conjugated to OVA in either a 1:1 or 1:4 ratio (by MBS coupling method), and conjugated to OVA at the C-terminus (C-term, made by the addition of a cysteine), and SHAAGtide variant (SEQ ID NO:3). In three separate experiments, chemokines or peptides (2 μg or 20 μg in PBS) were injected intradermally into BALB/c or C57BI/6 mice (Jackson Laboratory; Bar Harbor, Me.). In each experiment, one mouse received an injection of PBS only as a negative control. At various times after injection, the mice were euthanized, and the area around the injection site was excised and subjected to immunohistology. Frozen sections were stained with anti-DEC-205 antibody (Bio-Whittaker Molecular Applications; Rockland, Me.) that recognizes a dendritic cell-specific molecule (Kraal et al., 1986). A relative staining number on a scale of […] was assigned to each section (0, none; 1, slight; 2, mild; 3, moderate; 4, severe).

[3] = target: T1, human FPRL1 (Homo sapiens, UniProt P25090); assay: Calcium flux in FPRL1-L1.2 transfectants; format: cell-based; details: for Designation and FPRL1 Activity: qualitative rating high, moderate, low, see Example 9; for Notes: activity: qualitative rating, Table 6
T1 construct: Full length cDNA encoding FPRL1 was cloned, using the polymerase chain reaction (PCR), from genomic DNA isolated from undifferentiated HL-60 cells; expressed in transfected cells; linearized FPRL1/pcDNA3.1, electroporation
T1 sequence (P25090 1-351): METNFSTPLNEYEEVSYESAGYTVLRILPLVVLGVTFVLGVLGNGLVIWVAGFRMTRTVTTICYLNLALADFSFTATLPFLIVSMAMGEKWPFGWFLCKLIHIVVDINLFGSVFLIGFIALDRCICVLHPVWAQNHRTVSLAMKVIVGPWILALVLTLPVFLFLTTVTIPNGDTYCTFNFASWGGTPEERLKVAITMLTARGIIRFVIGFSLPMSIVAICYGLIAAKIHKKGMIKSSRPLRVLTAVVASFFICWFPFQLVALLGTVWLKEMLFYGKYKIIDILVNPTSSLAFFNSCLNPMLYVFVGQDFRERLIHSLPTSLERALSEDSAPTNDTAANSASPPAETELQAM
Experimental: Ca^2+ mobilization responses were performed using the intracellular ratiometric fluorescent dye, lndo-1. Cells were loaded with Indo-1/AM (3 μM; Molecular Probes, Eugene, Oreg.) in culture medium (45 min, 20° C., 10^7 cells/ml). After dye loading, cells were washed once with 10 ml PBS) and resuspended at 10^6 cell/ml in HBSS containing 1% FBS. Cytosolic [Ca^2+] release was determined using excitation at 350 nm using a Photon Technology International fluorimeter (excitation at 350 nm, ratioed dual emission at 400 and 490 nm).
The functional activities of CKβ8-1 (25-116) were investigated in human FPRL1-L1.2 transfectants and in native L1.2 cells. Stable expression of formyl peptide-like receptor 1 (FPRL1) in L.1.2 cell was obtained as follows. Full length cDNA encoding FPRL1 was cloned, using the polymerase chain reaction (PCR), from genomic DNA isolated from undifferentiated HL-60 cells. […] Twenty micrograms of the FPRL1/pcDNA3.1 construct were linearized by digestion with Bsm1 (New England Biolabs, Beverly, Mass.) and used to transfect the murine B cell line L1.2 as follows. Twenty five million cells were washed twice and resuspended in 0.8 ml of PBS. The cells were incubated for 10 min at room temperature with the linearized FPRL/pcDNA3.1 construct DNA and transferred to a 0.4-cm cuvette, and a single electroporation pulse was applied at 250 V, 960 μF. Electroporated cells were incubated for 10 min at room temperature and transferred to culture at 37° C. in RPMI supplemented with 10% FCS. Geneticin (G418) was added to a final concentration of 800 μg/ml 48 h posttransfection and the cells plated into 96-well plates at 25,000 cells/well. After 2-3 weeks under drug selection, stable geneticin-resistant FPLR1 expressing cells were assessed for their ability to mobilize Ca^++ in response to SHAAGtide or CKbeta 8-1 at concentrations of 1 to 1000 nM.
A calcium flux test was performed on these transfectants using the method described in Example 1.
Stable expression of human FPRL1 in L1.2 cells was obtained as in Example 6. Calcium flux tests were conducted on the transfectants using the method described in Example 1. Chemokines (CKβ8(1-99), CKβ8(25-99), CKβ8-1(1-116) and CKβ8-1(25-116), were prepared as in Example 1. W peptides 1 and 2 were obtained as in Example 6. In addition, and the following SHAAGtide sequences and truncated variants (prepared as in Example 8) were tested:
All ligands were added in a dose response manner and the peak calcium flux response determined.

[4] = intraperitoneally on days 0 and 21, 0 day

Substance: 2 μg SHAAYtide (SEQ ID NO: 6): 2 μg SHAAYtide without OVA (MLWRRKIGPQMTLSHAAY; SHAAGtide variant)
anti-OVA IgG, individual mouse [1, 4]: 7 antibody units (2×) and 14 antibody units and 24 antibody units | anti-OVA IgG, average ([1]; intraperitoneally, 0 day): 13 antibody units | anti-OVA IgG, average ([1]; intraperitoneally, 10 d): 68 antibody units | anti-OVA IgG, increase from day 0 ([1]; intraperitoneally, 10 d): 55 antibody units | anti-OVA IgG, individual mouse ([1]; intraperitoneally, 10 d): 0 antibody units (3×) and 273 antibody units | anti-OVA IgG, average ([1]; intraperitoneally, 15 d): 0 antibody units | anti-OVA IgG, increase from day 0 ([1]; intraperitoneally, 15 d): 0 antibody units | anti-OVA IgG, individual mouse ([1]; intraperitoneally, 15 d): 0 antibody units | anti-OVA IgG, average ([1]; intraperitoneally, 27 d): 51 antibody units | anti-OVA IgG, increase from day 0 ([1]; intraperitoneally, 27 d): 38 antibody units | anti-OVA IgG, individual mouse ([1]; intraperitoneally, 27 d): 47 antibody units (2×) and 58 antibody units | anti-OVA IgG, average ([1]; intraperitoneally, 31 d): 19 antibody units | anti-OVA IgG, increase from day 0 ([1]; intraperitoneally, 31 d): 6 antibody units | anti-OVA IgG, individual mouse ([1]; intraperitoneally, 31 d): 47 antibody units and 17 antibody units and 12 antibody units and 0 antibody units | anti-OVA IgG, average ([1]; intraperitoneally, 36 d): 42 antibody units | anti-OVA IgG, increase from day 0 ([1]; intraperitoneally, 36 d): 29 antibody units | anti-OVA IgG, individual mouse ([1]; intraperitoneally, 36 d): 60 antibody units (2×) and 46 antibody units and 0 antibody units

Substance: GM-CSF
Infiltration Score ([2]; 6 hours): 2 and 1 | Infiltration Score ([2]; 30 hours): 1 | infiltration of DEC-205-labeled cells ([2]; summary of Tables 15, 16 and 17): excellent infiltration

Substance: 20 μg SHAAYtide (SEQ ID NO: 6): 20 μg SHAAYtide without OVA (MLWRRKIGPQMTLSHAAY; SHAAGtide variant)
anti-OVA IgG, individual mouse [1, 4]: 31 antibody units and 47 antibody units and 139 antibody units and 64 antibody units | anti-OVA IgG, average ([1]; intraperitoneally, 0 day): 70 antibody units | anti-OVA IgG, average ([1]; intraperitoneally, 10 d): 158 antibody units | anti-OVA IgG, increase from day 0 ([1]; intraperitoneally, 10 d): 88 antibody units | anti-OVA IgG, individual mouse ([1]; intraperitoneally, 10 d): 0 antibody units (2×) and 40 antibody units and 592 antibody units | anti-OVA IgG, average ([1]; intraperitoneally, 15 d): 42 antibody units | anti-OVA IgG, increase from day 0 ([1]; intraperitoneally, 15 d): 0 antibody units | anti-OVA IgG, individual mouse ([1]; intraperitoneally, 15 d): 0 antibody units (3×) and 168 antibody units | anti-OVA IgG, average ([1]; intraperitoneally, 27 d): 112 antibody units | anti-OVA IgG, increase from day 0 ([1]; intraperitoneally, 27 d): 41 antibody units | anti-OVA IgG, individual mouse ([1]; intraperitoneally, 27 d): 122 antibody units and 110 antibody units and 116 antibody units and 98 antibody units | anti-OVA IgG, average ([1]; intraperitoneally, 31 d): 40 antibody units | anti-OVA IgG, increase from day 0 ([1]; intraperitoneally, 31 d): 0 antibody units | anti-OVA IgG, individual mouse ([1]; intraperitoneally, 31 d): 12 antibody units and 32 antibody units and 69 antibody units and 47 antibody units | anti-OVA IgG, average ([1]; intraperitoneally, 36 d): 0 antibody units | anti-OVA IgG, increase from day 0 ([1]; intraperitoneally, 36 d): 0 antibody units | anti-OVA IgG, individual mouse ([1]; intraperitoneally, 36 d): 0 antibody units

Substance: WRRKIG [SEQ ID NO: 10, Trp Arg Arg Lys Ile Gly]
Designation and FPRL1 Activity [3]: Low

Substance: MLWRRKIGPQM [SEQ ID NO: 8]
Designation and FPRL1 Activity [3]: moderate FPRL1 activity | Designation and FPRL1 Activity ([3]; listed as CCXP8): Moderate | Notes: activity [3]: Moderate

Substance: SHAAYtide (SEQ ID NO: 6), cyclized: structurally modified peptide, cyclized using the MPR-Cys linked cyclization (MLWRRKIGPQMTLSHAAY; also: cyclized using MPR-Cys linked cyclization, MPR and Cys not in given letters)
Infiltration Score ([2]; 30 hours): 1 and 2

Substance: WRRKIGPQMTLSHAAG [SEQ ID NO: 7]
Designation and FPRL1 Activity [3]: Low

Further lines, with some results ahead:

Designation and FPRL1 Activity ([3]; listed as CCXP11): Moderate | Notes: activity [3]: Moderate
Substance: LWRRKIGPQMTLSH [SEQ ID NO: 11]
Designation and FPRL1 Activity [3]: does not result in a complete loss in FRPL1 activity

Designation and FPRL1 Activity [3]: Low
Substance: WRRKIGPQM [SEQ ID NO: 9]

IC50 ([3]; peak calcium flux, dose response, read-out: Induction of Calcium Flux in FPRL1 L1.2 Cells, IC 50): > 50 µM
Substance: RRKIGPQMTLSHAAG [SEQ ID NO: 2]

Designation and FPRL1 Activity [3]: High | Notes: activity [3]: High
Substance: MLWRRKIGPQMTLSH [SEQ ID NO: 3]

Designation and FPRL1 Activity [3]: Low
Substance: IGPQMTLSHAAG [SEQ ID NO: 4]

Designation and FPRL1 Activity [3]: Moderate | Notes: activity [3]: Moderate
Substance: MLWRRKIGPQMT [SEQ ID NO: 5]
